Measurements published in the supplement of paper PMC4862054.

Each compound was assayed on DU-4475 (assay: normalised response (% of control), CellTiter-Glo; higher = more viable cells (100 = DMSO, 0 = benzethonium chloride kill control)). Conditions: incubation time: 72 h.
Protocol: (§1)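 DSRT, 72 h incubation, CellTox Green / CellTiter-Glo readout. Signal is normalised to DMSO and benzethonium chloride controls. Value is the normalised response at dose 3.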

Structure (SMILES) | normalised response [%]
CC[C@@H]1C(=O)OC[C@@H]1Cc1cncn1C [Pilocarpine] (400 nM) | 97.7
COc1cc(F)c(F)c(Nc2ccc(I)cc2F)c1NS(=O)(=O)C1(C[C@H](O)CO)CC1 [Refametinib] (100 nM) | 35.1

Each compound was assayed on CAL-85-1 in the same assay as above. Conditions: incubation time: 72 h.
Protocol: as §1

Structure (SMILES) | normalised response [%]
Cc1sc2c(c1C)C(c1ccc(Cl)cc1)=N[C@@H](CC(=O)OC(C)(C)C)c1nnc(C)n1-2 [(+)JQ1] (100 nM) | 88.8
Oc1ncnc2[nH]ncc12 [Allopurinol] (100 nM) | 104
CC1=C2C[C@H]3[C@@H](CC=C4C[C@@H](O)CC[C@@]43C)[C@@H]2CC[C@]12O[C@@H]1C[C@H](C)CN[C@H]1[C@H]2C [Cyclopamine] (100 nM) | 106
CC(=O)N(O)CCCCCNC(=O)CCC(=O)N(O)CCCCCNC(=O)CCC(=O)N(O)CCCCCN [Deferoxamine] (100 nM) | 95
C[C@]12CC[C@@H]3c4ccc(OC(=O)N(CCCl)CCCl)cc4CC[C@H]3[C@@H]1CC[C@@H]2O [Estramustine] (100 nM) | 94.6
CC1(C)CNc2cc(NC(=O)c3cccnc3NCc3ccncc3)ccc21 [Motesanib] (100 nM) | 89.5
CC(=O)c1c(C)c2cnc(Nc3ccc(N4CCNCC4)cn3)nc2n(C2CCCC2)c1=O [Palbociclib] (100 nM) | 97.3
CC[C@@H]1C(=O)OC[C@@H]1Cc1cncn1C [Pilocarpine] (400 nM) | 97
COc1cc(F)c(F)c(Nc2ccc(I)cc2F)c1NS(=O)(=O)C1(C[C@H](O)CO)CC1 [Refametinib] (100 nM) | 89.7

Each compound was assayed on CAL-148 (assay: normalised response (% of control), CellTox Green; higher = less cell death (100 = DMSO, 0 = benzethonium chloride kill control)). Conditions: incubation time: 72 h.
Outline: (§2)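 Values are normalised signals, each belonging to one concentration of the series. Breast cancer cells (20 µl suspension) were seeded into 384-well plates with compound at 5 concentrations in 10-fold steps over a compound-specific 10,000-fold range and incubated 72 h. Readouts were CellTox Green fluorescence (485/520 nm), then CellTiter-Glo luminescence after 10 min at room temperature, with each plate set to 0.1 % DMSO as 100 and a positive kill control as 0.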

Structure (SMILES) | normalised response [%]
Cc1sc2c(c1C)C(c1ccc(Cl)cc1)=N[C@@H](CC(=O)OC(C)(C)C)c1nnc(C)n1-2 [(+)JQ1] (100 nM) | 98.3
Oc1ncnc2[nH]ncc12 [Allopurinol] (100 nM) | 86.5
CC1=C2C[C@H]3[C@@H](CC=C4C[C@@H](O)CC[C@@]43C)[C@@H]2CC[C@]12O[C@@H]1C[C@H](C)CN[C@H]1[C@H]2C [Cyclopamine] (100 nM) | 104
CC(=O)N(O)CCCCCNC(=O)CCC(=O)N(O)CCCCCNC(=O)CCC(=O)N(O)CCCCCN [Deferoxamine] (100 nM) | 92.4
C[C@]12CC[C@@H]3c4ccc(OC(=O)N(CCCl)CCCl)cc4CC[C@H]3[C@@H]1CC[C@@H]2O [Estramustine] (100 nM) | 102
CC1(C)CNc2cc(NC(=O)c3cccnc3NCc3ccncc3)ccc21 [Motesanib] (100 nM) | 94.2
CC(=O)c1c(C)c2cnc(Nc3ccc(N4CCNCC4)cn3)nc2n(C2CCCC2)c1=O [Palbociclib] (100 nM) | 103
CC[C@@H]1C(=O)OC[C@@H]1Cc1cncn1C [Pilocarpine] (400 nM) | 97.1
COc1cc(F)c(F)c(Nc2ccc(I)cc2F)c1NS(=O)(=O)C1(C[C@H](O)CO)CC1 [Refametinib] (100 nM) | 58.6

Each compound was assayed on HCC1599 in the same assay as above. Conditions: incubation time: 72 h.
Outline: as §2

Structure (SMILES) | normalised response [%]
Cc1sc2c(c1C)C(c1ccc(Cl)cc1)=N[C@@H](CC(=O)OC(C)(C)C)c1nnc(C)n1-2 [(+)JQ1] (100 nM) | 105
Oc1ncnc2[nH]ncc12 [Allopurinol] (100 nM) | 104
CC1=C2C[C@H]3[C@@H](CC=C4C[C@@H](O)CC[C@@]43C)[C@@H]2CC[C@]12O[C@@H]1C[C@H](C)CN[C@H]1[C@H]2C [Cyclopamine] (100 nM) | 104
CC(=O)N(O)CCCCCNC(=O)CCC(=O)N(O)CCCCCNC(=O)CCC(=O)N(O)CCCCCN [Deferoxamine] (100 nM) | 92.5
C[C@]12CC[C@@H]3c4ccc(OC(=O)N(CCCl)CCCl)cc4CC[C@H]3[C@@H]1CC[C@@H]2O [Estramustine] (100 nM) | 91.3
CC1(C)CNc2cc(NC(=O)c3cccnc3NCc3ccncc3)ccc21 [Motesanib] (100 nM) | 103
CC(=O)c1c(C)c2cnc(Nc3ccc(N4CCNCC4)cn3)nc2n(C2CCCC2)c1=O [Palbociclib] (100 nM) | 95.2
CC[C@@H]1C(=O)OC[C@@H]1Cc1cncn1C [Pilocarpine] (400 nM) | 99.5
COc1cc(F)c(F)c(Nc2ccc(I)cc2F)c1NS(=O)(=O)C1(C[C@H](O)CO)CC1 [Refametinib] (100 nM) | 93.7

Each compound was assayed on MDA-MB-468 in the same assay as above. Conditions: incubation time: 72 h.
Outline: as §2

Structure (SMILES) | normalised response [%]
Cc1sc2c(c1C)C(c1ccc(Cl)cc1)=N[C@@H](CC(=O)OC(C)(C)C)c1nnc(C)n1-2 [(+)JQ1] (100 nM) | 131
Oc1ncnc2[nH]ncc12 [Allopurinol] (100 nM) | 92.2
CC1=C2C[C@H]3[C@@H](CC=C4C[C@@H](O)CC[C@@]43C)[C@@H]2CC[C@]12O[C@@H]1C[C@H](C)CN[C@H]1[C@H]2C [Cyclopamine] (100 nM) | 88.8
CC(=O)N(O)CCCCCNC(=O)CCC(=O)N(O)CCCCCNC(=O)CCC(=O)N(O)CCCCCN [Deferoxamine] (100 nM) | 114
C[C@]12CC[C@@H]3c4ccc(OC(=O)N(CCCl)CCCl)cc4CC[C@H]3[C@@H]1CC[C@@H]2O [Estramustine] (100 nM) | 97.9
CC1(C)CNc2cc(NC(=O)c3cccnc3NCc3ccncc3)ccc21 [Motesanib] (100 nM) | 93
CC[C@@H]1C(=O)OC[C@@H]1Cc1cncn1C [Pilocarpine] (400 nM) | 73.4

Each compound was assayed on HDQ-P1 in the same assay as above. Conditions: incubation time: 72 h.
Outline: as §2

Structure (SMILES) | normalised response [%]
Cc1sc2c(c1C)C(c1ccc(Cl)cc1)=N[C@@H](CC(=O)OC(C)(C)C)c1nnc(C)n1-2 [(+)JQ1] (100 nM) | 96.3
Oc1ncnc2[nH]ncc12 [Allopurinol] (100 nM) | 103
CC1=C2C[C@H]3[C@@H](CC=C4C[C@@H](O)CC[C@@]43C)[C@@H]2CC[C@]12O[C@@H]1C[C@H](C)CN[C@H]1[C@H]2C [Cyclopamine] (100 nM) | 68.2
CC(=O)N(O)CCCCCNC(=O)CCC(=O)N(O)CCCCCNC(=O)CCC(=O)N(O)CCCCCN [Deferoxamine] (100 nM) | 96.1
C[C@]12CC[C@@H]3c4ccc(OC(=O)N(CCCl)CCCl)cc4CC[C@H]3[C@@H]1CC[C@@H]2O [Estramustine] (100 nM) | 89.7
CC1(C)CNc2cc(NC(=O)c3cccnc3NCc3ccncc3)ccc21 [Motesanib] (100 nM) | 111
CC(=O)c1c(C)c2cnc(Nc3ccc(N4CCNCC4)cn3)nc2n(C2CCCC2)c1=O [Palbociclib] (100 nM) | 101
CC[C@@H]1C(=O)OC[C@@H]1Cc1cncn1C [Pilocarpine] (400 nM) | 91
COc1cc(F)c(F)c(Nc2ccc(I)cc2F)c1NS(=O)(=O)C1(C[C@H](O)CO)CC1 [Refametinib] (100 nM) | 81.3

What follows are compounds tested on MFM-223 in the same assay as above. Conditions: incubation time: 72 h.
Outline: as §2

Structure (SMILES) | normalised response [%]
Cc1sc2c(c1C)C(c1ccc(Cl)cc1)=N[C@@H](CC(=O)OC(C)(C)C)c1nnc(C)n1-2 [(+)JQ1] (100 nM) | 103
Oc1ncnc2[nH]ncc12 [Allopurinol] (100 nM) | 91.8
CC1=C2C[C@H]3[C@@H](CC=C4C[C@@H](O)CC[C@@]43C)[C@@H]2CC[C@]12O[C@@H]1C[C@H](C)CN[C@H]1[C@H]2C [Cyclopamine] (100 nM) | 107
CC(=O)N(O)CCCCCNC(=O)CCC(=O)N(O)CCCCCNC(=O)CCC(=O)N(O)CCCCCN [Deferoxamine] (100 nM) | 102
C[C@]12CC[C@@H]3c4ccc(OC(=O)N(CCCl)CCCl)cc4CC[C@H]3[C@@H]1CC[C@@H]2O [Estramustine] (100 nM) | 99.3
CC1(C)CNc2cc(NC(=O)c3cccnc3NCc3ccncc3)ccc21 [Motesanib] (100 nM) | 92.8
CC(=O)c1c(C)c2cnc(Nc3ccc(N4CCNCC4)cn3)nc2n(C2CCCC2)c1=O [Palbociclib] (100 nM) | 101
CC[C@@H]1C(=O)OC[C@@H]1Cc1cncn1C [Pilocarpine] (400 nM) | 99.6
COc1cc(F)c(F)c(Nc2ccc(I)cc2F)c1NS(=O)(=O)C1(C[C@H](O)CO)CC1 [Refametinib] (100 nM) | 97.7

The compounds below were run on BT-549 in the same assay as above. Conditions: incubation time: 72 h.
Outline: as §2

Structure (SMILES) | normalised response [%]
Cc1sc2c(c1C)C(c1ccc(Cl)cc1)=N[C@@H](CC(=O)OC(C)(C)C)c1nnc(C)n1-2 [(+)JQ1] (100 nM) | 95.7
Oc1ncnc2[nH]ncc12 [Allopurinol] (100 nM) | 94.6
CC1=C2C[C@H]3[C@@H](CC=C4C[C@@H](O)CC[C@@]43C)[C@@H]2CC[C@]12O[C@@H]1C[C@H](C)CN[C@H]1[C@H]2C [Cyclopamine] (100 nM) | 102
CC(=O)N(O)CCCCCNC(=O)CCC(=O)N(O)CCCCCNC(=O)CCC(=O)N(O)CCCCCN [Deferoxamine] (100 nM) | 97.8
C[C@]12CC[C@@H]3c4ccc(OC(=O)N(CCCl)CCCl)cc4CC[C@H]3[C@@H]1CC[C@@H]2O [Estramustine] (100 nM) | 103
CC1(C)CNc2cc(NC(=O)c3cccnc3NCc3ccncc3)ccc21 [Motesanib] (100 nM) | 106
CC(=O)c1c(C)c2cnc(Nc3ccc(N4CCNCC4)cn3)nc2n(C2CCCC2)c1=O [Palbociclib] (100 nM) | 103
CC[C@@H]1C(=O)OC[C@@H]1Cc1cncn1C [Pilocarpine] (400 nM) | 93.4
COc1cc(F)c(F)c(Nc2ccc(I)cc2F)c1NS(=O)(=O)C1(C[C@H](O)CO)CC1 [Refametinib] (100 nM) | 102

Each compound was assayed on HCC1143 in the same assay as above. Conditions: incubation time: 72 h.
Outline: as §2

Structure (SMILES) | normalised response [%]
Cc1sc2c(c1C)C(c1ccc(Cl)cc1)=N[C@@H](CC(=O)OC(C)(C)C)c1nnc(C)n1-2 [(+)JQ1] (100 nM) | 111
Oc1ncnc2[nH]ncc12 [Allopurinol] (100 nM) | 113
CC1=C2C[C@H]3[C@@H](CC=C4C[C@@H](O)CC[C@@]43C)[C@@H]2CC[C@]12O[C@@H]1C[C@H](C)CN[C@H]1[C@H]2C [Cyclopamine] (100 nM) | 115
CC(=O)N(O)CCCCCNC(=O)CCC(=O)N(O)CCCCCNC(=O)CCC(=O)N(O)CCCCCN [Deferoxamine] (100 nM) | 102
C[C@]12CC[C@@H]3c4ccc(OC(=O)N(CCCl)CCCl)cc4CC[C@H]3[C@@H]1CC[C@@H]2O [Estramustine] (100 nM) | 84.8
CC1(C)CNc2cc(NC(=O)c3cccnc3NCc3ccncc3)ccc21 [Motesanib] (100 nM) | 100
CC(=O)c1c(C)c2cnc(Nc3ccc(N4CCNCC4)cn3)nc2n(C2CCCC2)c1=O [Palbociclib] (100 nM) | 55.5
CC[C@@H]1C(=O)OC[C@@H]1Cc1cncn1C [Pilocarpine] (400 nM) | 104
COc1cc(F)c(F)c(Nc2ccc(I)cc2F)c1NS(=O)(=O)C1(C[C@H](O)CO)CC1 [Refametinib] (100 nM) | 95.8

What follows are compounds tested on HCC1937 in the same assay as above. Conditions: incubation time: 72 h.
Outline: as §2

Structure (SMILES) | normalised response [%]
C[C@]12CC[C@@H]3c4ccc(OC(=O)N(CCCl)CCCl)cc4CC[C@H]3[C@@H]1CC[C@@H]2O [Estramustine] (100 nM) | 70.5
CC1(C)CNc2cc(NC(=O)c3cccnc3NCc3ccncc3)ccc21 [Motesanib] (100 nM) | 99.2
CC(=O)c1c(C)c2cnc(Nc3ccc(N4CCNCC4)cn3)nc2n(C2CCCC2)c1=O [Palbociclib] (100 nM) | 82
CC[C@@H]1C(=O)OC[C@@H]1Cc1cncn1C [Pilocarpine] (400 nM) | 70.4
COc1cc(F)c(F)c(Nc2ccc(I)cc2F)c1NS(=O)(=O)C1(C[C@H](O)CO)CC1 [Refametinib] (100 nM) | 92.5

The compounds below were run on MDA-MB-231 in the same assay as above. Conditions: incubation time: 72 h.
Outline: as §2

Structure (SMILES) | normalised response [%]
Cc1sc2c(c1C)C(c1ccc(Cl)cc1)=N[C@@H](CC(=O)OC(C)(C)C)c1nnc(C)n1-2 [(+)JQ1] (100 nM) | 96.2
Oc1ncnc2[nH]ncc12 [Allopurinol] (100 nM) | 112
CC1=C2C[C@H]3[C@@H](CC=C4C[C@@H](O)CC[C@@]43C)[C@@H]2CC[C@]12O[C@@H]1C[C@H](C)CN[C@H]1[C@H]2C [Cyclopamine] (100 nM) | 102
